Test results as given in patent publication US20150299143A1, “SUBSTITUTED TRIAZOLE AND IMIDAZOLE COMPOUNDS” (HOFFMANN-LA ROCHE INC., priority 2012, published 2015).

Tests used:
[1] = molecular target: T1, β 5i (chymotrypsin-like activity) (Homo sapiens, UniProt P20618+P28062); assay: Cell-Based Proteasome subunit activity/selectivity assay, β5i, substrate (ANW)2Rh110; details: Ramos cells; substrate (ANW)2Rh110 (β5i); highest concentration tested 20 μM; read-out: Ic50:ramos:ac-(anw)2-r110
T1 construct: protease activity associated with the proteasome complex in cultured cells; endogenous in cells; host or cells: Ramos cells
Text: (§1) Cell-Based Proteasome Activity/Selectivity Assay
(§2) The Cell-Based Proteasome subunit activity/selectivity assay was a panel of 5 fluorogenic assays that independently measured the activity of β5c or β 5i (chymotrypsin-like activity), β 2c/2i (trypsin-like), and β 1c or β 1i (caspase-like) protease activity associated with the proteasome complex in cultured cells. Specifically, the following substrates were used for respective subunit activities: β 1i (PAL)2Rh110, β 1c: (LLE)2 Rh110, β 2c/2i: (KQL)2Rh110, β 5c: (WLA)2Rh110, β 5i: (ANW)2Rh110. The following procedure was followed:
(§3) Added 0.5 μl of 100× 4-fold serial diluted test compounds or DMSO to each well. Highest concentration of compound tested was 20 μM, thus compound serial dilution started from […]. Incubated for 30 minutes at 37° C. Then equilibrated at room temperature for 15 minutes. […] Shaked for one minute @ 700 rpm. Incubated for 120 min at room temperature. Then read the plates with an Envision multilabel plate reader (PerkinElmer) with 500 nm excitation/519 nm emission.

β 1c (caspase-like) = molecular target: T2, β 1c (caspase-like) (Homo sapiens, UniProt P28072+Q99436); assay: Cell-Based Proteasome subunit activity/selectivity assay, β1c, substrate (LLE)2Rh110; details: Ramos cells; substrate (LLE)2Rh110 (β1c); highest concentration tested 20 μM; read-out: Ic50:ramos:rh110-(lle)2
T2 construct: protease activity associated with the proteasome complex in cultured cells; endogenous in cells; host or cells: Ramos cells
Text: as §1, §2, §3

[2] = molecular target: T3, β5c (chymotrypsin-like activity) (Homo sapiens, UniProt P20618+P28074); assay: Cell-Based Proteasome subunit activity/selectivity assay, β5c, substrate (WLA)2Rh110; details: Ramos cells; substrate (WLA)2Rh110 (β5c); highest concentration tested 20 μM; read-out: Ic50:ramos:rh110-(wla)2
T3 construct: protease activity associated with the proteasome complex in cultured cells; endogenous in cells; host or cells: Ramos cells
Text: as §1, §2, §3

β 2c/2i (trypsin-like) = assay: Cell-Based Proteasome subunit activity/selectivity assay, β2c/2i, substrate (KQL)2Rh110; details: Ramos cells; substrate (KQL)2Rh110 (β2c/2i); highest concentration tested 20 μM
Text: as §1, §2, §3

β 1i (caspase-like) = molecular target: T4, β 1i (caspase-like) (Homo sapiens, UniProt P28065+P40306); assay: Cell-Based Proteasome subunit activity/selectivity assay, β1i, substrate (PAL)2Rh110; details: Ramos cells; substrate (PAL)2Rh110 (β1i); highest concentration tested 20 μM; read-out: Ic50:ramos:rh110-(pal)2
T4 construct: protease activity associated with the proteasome complex in cultured cells; endogenous in cells; host or cells: Ramos cells
Text: as §1, §2, §3

| IC50 [1] [µM] | IC50 (β 1c (caspase-like)) [µM] | IC50 [2] [µM] | IC50 (β 2c/2i (trypsin-like)) [µM] | IC50 (β 1i (caspase-like)) [µM] | Structure (SMILES) |
| --- | --- | --- | --- | --- | --- |
| 1.39 | ≥ 20 | 19.9 | ≥ 20 | ≥ 20 | Cc1ccc(C(=O)NCCn2cc(C(=O)NC(C#N)c3ccc(C(F)(F)F)cc3)nn2)c(F)c1 (stereo not shown) [Example 75, 1-[2-(2-Fluoro-4-methyl-benzoylamino)-ethyl]-1H-[1,2,3]triazole-4-carboxylic acid [cyano-(4-trifluoromethyl-phenyl)-methyl]-amide] |
| 5.59 | ≥ 20 | ≥ 20 | ≥ 20 | ≥ 20 | COc1cc(OC(F)(F)F)ccc1C(=O)NCCn1cc(C(=O)NC(C#N)c2ccc(C(F)(F)F)cc2)nn1 (stereo not shown) [Example 71, 1-[2-(2-Methoxy-4-trifluoromethoxy-benzoylamino)-ethyl]-1H-[1,2,3]triazole-4-carboxylic acid [cyano-(4-trifluoromethyl-phenyl)-methyl]-amide] |
| 0.461 | ≥ 20 | 8.6 | ≥ 20 | ≥ 20 | COc1ccc(C(=O)NCCn2cc(C(=O)N[C@@H](Cc3ccccc3)C(=O)C(=O)NCc3ccccc3)nn2)c(OC)c1OC [Example 88, 1-[2-(2,3,4-Trimethoxy-benzoylamino)-ethyl]-1H-[1,2,3]triazole-4-carboxylic acid ((S)-1-benzyl-2-benzylcarbamoyl-2-oxo-ethyl)-amide] |
| 0.176 | ≥ 20 | 14.3 | ≥ 20 | ≥ 20 | O=C(CCNC(=O)c1cn(CCNC(=O)c2ccc(C(F)(F)F)cc2F)nn1)c1ccccc1 [Example 78] |
| 2.69 | ≥ 20 | ≥ 20 | ≥ 20 | ≥ 20 | COc1cccc(C(C#N)NC(=O)c2cn(CCNC(=O)c3ccc(OC)c(OC)c3OC)nn2)c1 (stereo not shown) [Example 52, 1-[2-(2,3,4-Trimethoxy-benzoylamino)-ethyl]-1H-[1,2,3]triazole-4-carboxylic acid [cyano-(3-methoxy-phenyl)-methyl]-amide] |
| 3.15 | ≥ 20 | ≥ 20 | ≥ 20 | ≥ 20 | CCc1ccc(C(C#N)NC(=O)c2cn(CCNC(=O)c3cc(S(C)(=O)=O)ccc3OC)nn2)cc1 (stereo not shown) [Example 42, 1-[2-(5-Methanesulfonyl-2-methoxy-benzoylamino)-ethyl]-1H-[1,2,3]triazole-4-carboxylic acid [cyano-(4-ethyl-phenyl)-methyl]-amide] |
| 4.52 | ≥ 20 | ≥ 20 | ≥ 20 | ≥ 20 | CCc1ccc(C(C#N)NC(=O)c2cn(CCNC(=O)c3cc(Cl)ccn3)nn2)cc1 (stereo not shown) [Example 27, 4-Chloro-pyridine-2-carboxylic acid [2-(4-{[cyano-(4-ethyl-phenyl)-methyl]-carbamoyl}-[1,2,3]triazol-1-yl)-ethyl]-amide] |
| 0.619 | ≥ 20 | ≥ 20 | ≥ 20 | ≥ 20 | COc1ccc(C(=O)NCCn2cc(C(=O)NC(C#N)c3ccc(C(F)(F)F)cc3)nn2)c(OC)c1OC (stereo not shown) [Example 60, 1-[2-(2,3,4-Trimethoxy-benzoylamino)-ethyl]-1H-[1,2,3]triazole-4-carboxylic acid [cyano-(4-trifluoromethyl-phenyl)-methyl]-amide] |
| 0.274 | – | 16.3 | ≥ 20 | ≥ 20 | CCc1ccc(C(C#N)NC(=O)c2cn(CCNC(=S)c3ccc(OC)c(OC)c3OC)nn2)cc1 (stereo not shown) [Example 86, 1-[2-(2,3,4-Trimethoxy-thiobenzoylamino)-ethyl]-1H-[1,2,3]triazole-4-carboxylic acid [cyano-(4-ethyl-phenyl)-methyl]-amide] |
| 0.604 | – | – | – | ≥ 20 | CCc1ccc(C(C#N)NC(=O)c2cn(CCNC(=O)c3ccc(OC)c(OC)c3OC)nn2)cc1 (single isomer, unassigned) [Example 51] |
| 3.79 | – | ≥ 20 | ≥ 20 | ≥ 20 | N#CC(NC(=O)c1cn(CCNC(=O)c2cc(Cl)ccc2Cl)nn1)c1ccc(C(F)(F)F)cc1 (stereo not shown) [Example 69, 1-[2-(2,5-Dichloro-benzoylamino)-ethyl]-1H-[1,2,3]triazole-4-carboxylic acid [cyano-(4-trifluoromethyl-phenyl)-methyl]-amide] |
| 4.06 | – | ≥ 20 | ≥ 20 | ≥ 20 | CCc1ccc(C(C#N)NC(=O)c2cn(CCNC(=O)c3ccc(OC)nn3)nn2)cc1 (stereo not shown) [Example 40, 6-Methoxy-pyridazine-3-carboxylic acid [2-(4-{[cyano-(4-ethyl-phenyl)-methyl]-carbamoyl}-[1,2,3]triazol-1-yl)-ethyl]-amide] |
| 2.88 | ≥ 20 | ≥ 20 | ≥ 20 | – | CCc1ccc(C(C#N)NC(=O)c2cn(CCNC(=O)c3cc(Cl)cc(C)n3)nn2)cc1 (stereo not shown) [Example 21, 4-Chloro-6-methyl-pyridine-2-carboxylic acid [2-(4-{[cyano-(4-ethyl-phenyl)-methyl]-carbamoyl}-[1,2,3]triazol-1-yl)-ethyl]-amide] |
| 0.159 | – | ≥ 20 | ≥ 20 | ≥ 20 | COc1ccc(C(=O)NCCn2cc(C(=O)NC(C#N)c3ccc(C4CC4)cc3)nn2)c(OC)c1OC (stereo not shown) [Example 58, 1-[2-(2,3,4-Trimethoxy-benzoylamino)-ethyl]-1H-[1,2,3]triazole-4-carboxylic acid [cyano-(4-cyclopropyl-phenyl)-methyl]-amide] |
| 9.93 | ≥ 20 | ≥ 20 | ≥ 20 | – | CCc1ccc(C(C#N)NC(=O)c2cn(CCNC(=O)c3ncccc3OC)nn2)cc1 (stereo not shown) [Example 17, 3-Methoxy-pyridine-2-carboxylic acid [2-(4-{[cyano-(4-ethyl-phenyl)-methyl]-carbamoyl}-[1,2,3]triazol-1-yl)-ethyl]-amide] |
| 0.201 | ≥ 20 | 16.3 | ≥ 20 | – | COc1ccc(C(=O)NCCn2cc(C(=O)NC(C#N)c3ccc4sccc4c3)nn2)c(OC)c1OC (stereo not shown) [Example 48, 1-[2-(2,3,4-Trimethoxy-benzoylamino)-ethyl]-1H-[1,2,3]triazole-4-carboxylic acid (benzo[b]thiophen-5-yl-cyano-methyl)-amide] |
| 0.338 | 19 | 12.5 | ≥ 20 | – | COc1ccc(C(=O)NCCn2cc(C(=O)NC(C#N)c3ccc4ccccc4c3)nn2)c(OC)c1OC (stereo not shown) [Example 49, 1-[2-(2,3,4-Trimethoxy-benzoylamino)-ethyl]-1H-[1,2,3]triazole-4-carboxylic acid (cyano-naphthalen-2-yl-methyl)-amide] |
| 0.517 | – | ≥ 20 | ≥ 20 | ≥ 20 | CCc1ccc(C(C#N)NC(=O)c2cn(CCNC(=O)c3cc(C(F)(F)F)ccc3OC)nn2)cc1 (stereo not shown) [Example 39, 1-[2-(2-Methoxy-5-trifluoromethyl-benzoylamino)-ethyl]-1H-[1,2,3]triazole-4-carboxylic acid [cyano-(4-ethyl-phenyl)-methyl]-amide] |
| 0.482 | ≥ 20 | ≥ 20 | ≥ 20 | – | CCc1ccc(C(C#N)NC(=O)c2cn(CCNC(=O)c3cccc4c3OCCO4)nn2)cc1 (stereo not shown) [Example 18, 1-{2-[(2,3-Dihydro-benzo[1,4]dioxine-5-carbonyl)-amino]-ethyl}-1H-[1,2,3]triazole-4-carboxylic acid [cyano-(4-ethyl-phenyl)-methyl]-amide] |
| 0.196 | ≥ 20 | ≥ 20 | ≥ 20 | – | CCc1ccc(C(C#N)NC(=O)c2cn(CCNC(=O)c3ccc(Cl)cc3OC)nn2)cc1 (stereo not shown) [Example 20, 1-[2-(4-Chloro-2-methoxy-benzoylamino)-ethyl]-1H-[1,2,3]triazole-4-carboxylic acid [cyano-(4-ethyl-phenyl)-methyl]-amide] |
| 0.111 | ≥ 20 | 12 | ≥ 20 | – | CCc1ccc(C(C#N)NC(=O)c2cn(CCNC(=O)c3ccc(SC)cc3OC)nn2)cc1 (stereo not shown) [Example 19, 1-[2-(2-Methoxy-4-methylsulfanyl-benzoylamino)-ethyl]-1H-[1,2,3]triazole-4-carboxylic acid [cyano-(4-ethyl-phenyl)-methyl]-amide] |
| 1.12 | ≥ 20 | ≥ 20 | ≥ 20 | – | CCc1ccc(C(C#N)NC(=O)c2cn(CCNC(=O)c3cccc(OC)c3OC)nn2)cc1 (stereo not shown) [Example 16, 1-[2-(2,3-Dimethoxy-benzoylamino)-ethyl]-1H-[1,2,3]triazole-4-carboxylic acid [cyano-(4-ethyl-phenyl)-methyl]-amide] |
